Data as given in patent publication US8039464B2, “Muscarinic antagonists with PARP and SIR modulating activity as agents for inflammatory diseases” (ProteoSys AG, priority 2004, dated 2011).
Like-named read-outs stand apart in the source and are kept apart here.

Tests used:
PARP-1 [1] = molecular target: T1, PARP-1 (Homo sapiens, UniProt P09874); test: PARP inhibition assay (R&D Systems, Cat. No. TA4669); assay type: biochemical; conditions: for IC50: R&D assay, recombinant monomeric PARP-1, read-out: IC50 PARP-1 inhibition
T1 construct: purchased R&D Systems TA4669
Source text: A PARP inhibition assay from R&D Systems was used (Cat. No. TA4669) according to instructions of the supplier.
Under cellular conditions PARP-1 poly-ADP-ribosylates a host of nuclear proteins, including topoisomerase 1, 14-3-3 g and PARP-1 itself. Thus under cellular conditions, the self-modification of PARP-1 and dimerization are regulating its activity, moreover there is a tight interplay with PARG (poly-ADP-ribosyl-glycohydroxylase).

iNOS and Cox-2 = test: Cox-2 and iNOS expression after LPS challenge (Western blot); assay type: cell-based; conditions: LPS 100 ng/ml for 60 min
Protocol: (§1) Cell pellets were further investigated by Western blot staining with anti Cox-2 and anti iNOS antibodies of 1D polyacrylamide gels.
(§2) Cell survival was assessed by Trypan Blue staining.

[2] = test system: undifferentiated V56 embryonic stem cells; test: LPS challenge, cell survival by Trypan Blue; assay type: cell-based; conditions: LPS 100 ng/ml for 60 min
Protocol: as §1, §2

3T3 fibroblasts = test: LPS challenge, cell survival by Trypan Blue; assay type: cell-based; conditions: LPS 100 ng/ml for 60 min
Protocol: as §1, §2

[3] = test system: neurally differentiated V56 embryonic stem cells; test: LPS challenge, cell survival by Trypan Blue; assay type: cell-based; conditions: LPS 100 ng/ml for 60 min
Protocol: as §1, §2

A 549 cells = test: LPS challenge, cell survival by Trypan Blue; assay type: cell-based; conditions: LPS 100 ng/ml for 60 min
Protocol: as §1, §2

[4] = test system: D3 embryonic stem (ES) cells, neurons; test: Cell culture model for chemical ischemia and neuroprotection (calcium imaging); assay type: cell-based, mice
Protocol: For all experiments, D3 embryonic stem (ES) cells derived from 129/sv mice [Okabe et al., 1996] were cultivated for 12 days, with passages on days 2, 4, 7 and 9 as described previously [Sommer et al., 2004]. Insult conditions: Cells (24-well plates) were pre-incubated with or without 20 nM EPO in fresh medium for 24 hours at 37° C. Cells were rinsed once with low K^+ solution (140 mM NaCl, 4.7 mM KCl, 1.2 mM KH2PO4, 2.5 mM CaCl2, 1.2 mM MgSO4, 11 mM glucose, 15 mM Hepes-NaOH, pH 7.35). Cells (either with or without EPO pre-incubation) were incubated for up to 45 min (37° C.) with either low K^+ solution or with glucose-free low K^+ solution supplemented with 1 mM KCN (chemical ischemia solution [Kume et al., 2002]). Vitality control to asses numbers of surviving neurons was performed by a brief stimulation with a low dose of glutamate (10 μM). Afterwards, cells were washed three times with ice cold phosphate buffered saline (PBS), and then proteins were harvested. Suspended cells were pelleted at 500×G, and lysed into 9M urea 4% CHAPS. The cell lysate was desalted with a NAP-10 column (Amersham Biosciences), preequilibrated with the same buffer, and protein content was determined.
Functional tests by calcium imaging were performed essentially as described [Sommer et al., 2004]. Briefly, cells were loaded with 2 μM of […] in DMEM for 45 min at 37° C. in the dark. Measurements of relative changes in [Ca^2+] were made on an inverted epifluorescence microscope (Olympus IX70 S1F2) with a Polychrom IV Monochromator (Xe-lamp, USHIO). Excitation wavelengths (λ1, λ2) and the emission wavelength were 340, 380 and 510 nm, respectively. Acquisition and analysis of data after appropriate stimulation were performed by using MetaFluor software (Universal Imaging Corporation). Image resolution was 168×129 pixels (binning 8×8, pixel size 6.8×6.8 μm). Only cells identified as neurons by morphological criteria and occasional immunostaining (not shown) and those whose calcium levels returned to the resting state after the first stimulation were taken into account. Controls included nominal zero calcium (negative) and 5 μM ionomycin (positive), 10 μM glutamate (positive) and depolarisation (55 mM K+) (positive). Pharmacological agents were applied by a multi-valve, single-output focal drug application device (ALA Scientific) with the perfusion system DAD-12. […] During each stimulation event 20 image pairs were acquired.

[5] = Blood-brain-barrier passage: HPLC of plasma and CSF; conditions: rat, in vivo
Source text: J. Gastroenterol. 66, 35ff.; Homon et al., 1987, Therapeutic Drug Monitoring 9, 236ff.).

SIR-2 [6] = molecular target: T2, SIR-2 (Mus musculus, UniProt Q923E4); test: SIR2 activity assay (CycLex SIR2 Assay kit); assay type: biochemical, murine; conditions: control; read-out: IC50 SIR-2 inhibition
T2 construct: Using a raw extract from murine embryonic stem cells; host or cells: murine embryonic stem cells (raw extract)
T2 sequence (Q923E4 2-737 limits assumed): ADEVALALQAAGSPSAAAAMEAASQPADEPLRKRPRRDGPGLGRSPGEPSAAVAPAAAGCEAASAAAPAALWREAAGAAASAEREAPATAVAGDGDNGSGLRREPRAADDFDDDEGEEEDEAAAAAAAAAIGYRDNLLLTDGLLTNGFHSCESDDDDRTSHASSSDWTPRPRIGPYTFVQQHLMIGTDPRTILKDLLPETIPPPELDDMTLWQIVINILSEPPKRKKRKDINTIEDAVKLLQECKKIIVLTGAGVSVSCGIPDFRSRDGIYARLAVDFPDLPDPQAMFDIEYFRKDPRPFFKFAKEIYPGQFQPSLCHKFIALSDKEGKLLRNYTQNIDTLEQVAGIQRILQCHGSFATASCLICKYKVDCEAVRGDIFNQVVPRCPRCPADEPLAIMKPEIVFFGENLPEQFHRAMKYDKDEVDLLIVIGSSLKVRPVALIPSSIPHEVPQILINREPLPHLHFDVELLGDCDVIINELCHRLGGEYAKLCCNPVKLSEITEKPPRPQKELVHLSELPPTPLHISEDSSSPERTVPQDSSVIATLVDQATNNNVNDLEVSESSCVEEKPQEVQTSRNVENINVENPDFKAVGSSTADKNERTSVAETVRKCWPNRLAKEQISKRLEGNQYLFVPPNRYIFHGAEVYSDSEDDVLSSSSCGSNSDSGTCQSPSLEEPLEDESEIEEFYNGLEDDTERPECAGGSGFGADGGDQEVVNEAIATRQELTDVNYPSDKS
Source text: For measurements of SIR2 activities, the quantitative test kit for NAD-dependent histone deacetylase activity CycLex® SIR2 Assay kit (Cat# CY-1151) was used according to instructions of manufacturer (CycLex Co., Ltd. 1063-103 Ohara, Tera-Sawaoka Ina, Nagano 396-0002 Japan). All substances tested in the SIR assay were cross-checked for their influence on the lysyl-endopeptidase. For this control an already deacetylated substrate peptide was used in order to measure directly lysyl-endopeptidase activity.
For measurements of SIR2 activities, the quantitative test kit for NAD-dependent histone deacetylase activity CycLex® SIR2 Assay kit (Cat# CY-1151) was used according to instructions of manufacturer (CycLex Co., Ltd. 1063-103 Ohara, Tera-Sawaoka Ina, Nagano 396-0002 Japan).

PARP-1 [7] = test: Affinity enrichment with irreversible pirenzepine affinity tag; assay type: binding, mice
Source text: (§3) A reactive —SCN group is introduced which binds to lysines in or near the binding site of the compound. A biotinylated linker serves for enrichment of bound protein. The synthesis is described in detail co-pending US-application 60/588,354 and 60/620,323 which are herein incorporated by reference. In FIG. 1 a synthesis scheme is depcited. The final product, which was used as affinity reagent is thiocyanato 11-[2-(4-biocytinyl-piperazin-1-yl)-acetyl]-5,11-dihydro-benzo[e]pyrido[3,2-b][1,4]diazepin-6-one, (11).
(§4) The affinity reagent 11 was used to bind the target covalently from fractionations of crude cell extracts of D3 ES cells and other cell lines, subsequently the affinity purified material was analysed by 1D PAGE, immunostaining, and mass spectrometry.
The subsequent fractionation, isolation and further analysis was performed according to published standard procedures (Sommer et al. 2004). A commercial anti-PARP antibody was used for staining Western blots. Mass spectrometry for independent identification of pirenzepine-tagged proteins was performed as described elsewhere recently (Vogt et al., 2003, Cahill et al., 2003).
A surplus of affinity tag was removed by NAP10 gel filtration. The reaction mixture was bound to streptavidin agarose. Elution occurred with elution buffer (2% SDS, 62.5 mM Tris-pH 6.8) for 10 min at room temperature and 10 min at 95° C. […]

SIR-2 [8] = molecular target: T3, SIR-2 (Mus musculus, UniProt Q923E4); test: as above; assay type: binding
T3 construct: endogenous in cells; host or cells: V56 / D3 embryonic stem cells, raw extract
T3 sequence (Q923E4 1-737): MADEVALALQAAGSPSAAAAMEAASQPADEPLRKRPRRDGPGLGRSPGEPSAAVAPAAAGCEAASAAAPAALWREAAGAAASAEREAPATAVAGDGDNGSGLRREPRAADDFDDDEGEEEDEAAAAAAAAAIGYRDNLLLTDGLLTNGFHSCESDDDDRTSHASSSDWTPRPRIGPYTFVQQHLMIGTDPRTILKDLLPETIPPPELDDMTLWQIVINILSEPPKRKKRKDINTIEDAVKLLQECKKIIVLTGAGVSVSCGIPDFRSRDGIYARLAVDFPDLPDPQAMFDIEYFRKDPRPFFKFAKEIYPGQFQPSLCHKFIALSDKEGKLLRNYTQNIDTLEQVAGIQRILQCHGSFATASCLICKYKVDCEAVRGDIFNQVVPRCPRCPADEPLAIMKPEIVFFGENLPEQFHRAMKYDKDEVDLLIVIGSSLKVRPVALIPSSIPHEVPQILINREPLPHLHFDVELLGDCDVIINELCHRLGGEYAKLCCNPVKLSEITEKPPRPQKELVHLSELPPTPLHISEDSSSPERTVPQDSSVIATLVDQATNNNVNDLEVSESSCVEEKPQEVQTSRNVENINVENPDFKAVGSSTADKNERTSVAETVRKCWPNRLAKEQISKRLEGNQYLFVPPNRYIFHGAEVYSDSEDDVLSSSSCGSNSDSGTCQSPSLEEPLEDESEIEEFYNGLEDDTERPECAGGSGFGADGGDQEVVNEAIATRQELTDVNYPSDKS
Source text: as §3, §4
For SIR-2 staining the following antibodies were used: primary Ab: A-SiR 2 (Upstate, biomol 07-131; Lot:22073); 1:5000 in 5% BSA/1×TBST; secondary Ab: A-Rabbit PE(A-0545) 1:1000 in 5% BSA/1×TBST: […]

T1 sequence (P09874 whole entry): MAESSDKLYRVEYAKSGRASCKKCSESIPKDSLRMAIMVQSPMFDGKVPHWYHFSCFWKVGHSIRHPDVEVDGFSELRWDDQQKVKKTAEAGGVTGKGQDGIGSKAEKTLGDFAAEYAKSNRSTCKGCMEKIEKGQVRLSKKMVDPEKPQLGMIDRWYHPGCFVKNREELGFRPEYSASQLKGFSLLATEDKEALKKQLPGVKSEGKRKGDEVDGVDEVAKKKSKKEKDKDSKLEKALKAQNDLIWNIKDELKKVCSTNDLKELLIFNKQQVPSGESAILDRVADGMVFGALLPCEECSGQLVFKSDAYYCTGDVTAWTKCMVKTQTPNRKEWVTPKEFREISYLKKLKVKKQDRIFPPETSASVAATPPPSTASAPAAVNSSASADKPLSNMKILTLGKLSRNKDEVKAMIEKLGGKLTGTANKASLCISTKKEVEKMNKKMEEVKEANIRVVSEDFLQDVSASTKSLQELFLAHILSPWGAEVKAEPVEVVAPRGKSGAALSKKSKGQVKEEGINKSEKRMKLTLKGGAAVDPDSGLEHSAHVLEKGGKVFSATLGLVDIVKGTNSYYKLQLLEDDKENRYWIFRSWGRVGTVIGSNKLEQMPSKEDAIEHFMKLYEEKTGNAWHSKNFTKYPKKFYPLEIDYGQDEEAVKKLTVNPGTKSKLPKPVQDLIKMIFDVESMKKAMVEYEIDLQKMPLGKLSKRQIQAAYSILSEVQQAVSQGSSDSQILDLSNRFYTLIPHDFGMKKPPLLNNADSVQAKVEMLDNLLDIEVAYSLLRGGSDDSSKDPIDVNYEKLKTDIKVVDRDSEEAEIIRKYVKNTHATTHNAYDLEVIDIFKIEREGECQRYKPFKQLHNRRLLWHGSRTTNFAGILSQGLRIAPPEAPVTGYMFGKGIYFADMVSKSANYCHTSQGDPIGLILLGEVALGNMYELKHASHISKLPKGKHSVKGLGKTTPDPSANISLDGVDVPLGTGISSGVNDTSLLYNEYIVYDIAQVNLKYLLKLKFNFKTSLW
Chain of PARP-1 (P11103 215-1013 limits assumed): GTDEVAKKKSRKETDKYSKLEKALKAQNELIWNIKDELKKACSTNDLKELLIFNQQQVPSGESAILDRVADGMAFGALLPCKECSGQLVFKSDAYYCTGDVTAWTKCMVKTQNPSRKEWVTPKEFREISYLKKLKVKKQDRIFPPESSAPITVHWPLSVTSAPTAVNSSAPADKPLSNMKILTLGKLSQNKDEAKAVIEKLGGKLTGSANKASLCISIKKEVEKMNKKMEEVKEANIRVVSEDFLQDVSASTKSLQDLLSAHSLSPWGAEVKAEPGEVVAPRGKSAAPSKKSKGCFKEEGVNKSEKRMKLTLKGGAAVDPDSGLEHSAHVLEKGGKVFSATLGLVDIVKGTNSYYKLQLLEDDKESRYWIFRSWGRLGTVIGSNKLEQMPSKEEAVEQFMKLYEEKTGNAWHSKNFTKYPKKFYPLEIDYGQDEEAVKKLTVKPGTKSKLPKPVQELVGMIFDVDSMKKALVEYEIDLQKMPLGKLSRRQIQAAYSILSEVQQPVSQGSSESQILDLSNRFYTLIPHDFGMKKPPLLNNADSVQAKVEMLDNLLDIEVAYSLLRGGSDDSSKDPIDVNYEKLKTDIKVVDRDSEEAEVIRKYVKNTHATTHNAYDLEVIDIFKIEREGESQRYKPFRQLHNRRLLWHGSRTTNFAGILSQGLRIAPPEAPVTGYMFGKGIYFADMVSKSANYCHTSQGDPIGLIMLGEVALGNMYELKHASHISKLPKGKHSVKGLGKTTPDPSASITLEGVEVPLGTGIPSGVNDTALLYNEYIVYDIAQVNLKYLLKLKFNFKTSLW

For `CN1CCN(CC(=O)N2c3ccccc3C(=O)Nc3cccnc32)CC1` [Pirenzepine, 5,11-dihydro-11[(4-methyl-1-piperazinyl)-acetyl]-6H-pyrido-[2,3-b]-[1,4]benzodiazepine-6-one, reference compound], the “PARP-1 inhibition (in words)” value (PARP-1 [1]) was “rather weak PARP-1 inhibitor”, the IC50 (PARP-1 [1]) was 200 µM and the “expression of inducible inflammatory markers iNOS and Cox-2” value (iNOS and Cox-2) was “decreased expression”. For the same compound, the “protection from LPS challenge” value [2] was “protect”, the “protection from LPS challenge” value (3T3 fibroblasts) was “protect” and the “protection from LPS challenge” value [3] was “protect”. For the same compound, the “protection from LPS challenge” value (A 549 cells) was “protect”, the “neuroprotective in vitro effect” value ([4]; 1 μM, chemical ischemia) was “prevents neuronal death” and the survival rate ([4]; after chemical ischemia, 1 μM Pirenzepine (FIG. 2b)) was 72.1±4.4%. For the same compound, the “neuroprotective effect under raft-disrupting conditions” value ([4]; β-methyl-cyclodextrin or filipin) was “does not occur”.
For `O=C1Nc2cccnc2N(C(=O)CN2CCNCC2)c2ccccc21` [dm-Pirenzepine, desmethyl-Pirenzepine], the “passage into the brain” value [5] was “virtually no passage”.
Work on `NC(=O)c1cccnc1` [nicotine amide, reference compound] yielded an IC50 (SIR-2 [6]) of about 55 µM.
With `O=c1[nH]c2ccccc2c2ccccc12` [phenanthridone, reference compound] the IC50 (PARP-1 [1]) was 7 µM.
In the case of “thiocyanato 11-[2-(4-biocytinyl-piperazin-1-yl)-acetyl]-5,11-dihydro-benzo[e]pyrido[3,2-b][1,4]diazepin-6-one [pirenzepine-affinity tag]”, the “interaction with PARP-1” value (PARP-1 [7]) is reported as “interacts”, the “binding to SIR-2” value (SIR-2 [8]) is reported as “irreversibly binds” and the “binding to SIR-2” value (SIR-2 [8]; listed as affinity tag) is reported as “interacts”.
